Assay: xn = mol fraction of the nth substance listed
Conditions: 100 kPa

CC[NH+](C)CC.CS(=O)(=O)[O-] + O
viscosity [mPa·s]
Conditions | 298.15 K | 303.15 K | 308.15 K | 313.15 K | 318.15 K | 323.15 K | 328.15 K | 333.15 K | 338.15 K
x1 = 0.0155 | 1.28 | 1.15 | – | 0.957 | 0.876 | 0.806 | 0.751 | 0.693 | 0.643
x1 = 0.0356 | 2.02 | 1.84 | 1.64 | 1.47 | 1.34 | 1.22 | 1.13 | 1.04 | 0.953
x1 = 0.0571 | 2.57 | 2.27 | 2 | – | 1.61 | 1.45 | 1.31 | 1.2 | –
x1 = 0.0757 | 3.43 | 2.99 | 2.64 | 2.34 | 2.09 | 1.87 | 1.68 | 1.53 | 1.39
x1 = 0.0967 | – | – | 3.45 | 3.05 | 2.7 | 2.42 | 2.17 | – | 1.79
x1 = 0.1234 | 5.96 | 5.09 | 4.39 | 3.82 | 3.35 | 2.97 | 2.64 | 2.36 | 2.12
x1 = 0.1582 | 8.21 | 6.94 | 5.93 | 5.13 | – | 3.92 | – | 3.08 | 2.75
x1 = 0.206 | 11.6 | 9.76 | 8.3 | 7.11 | 6.12 | 5.3 | – | 4.03 | 3.55
x1 = 0.3246 | 20 | – | 13.9 | – | 10.1 | 8.94 | 7.81 | – | –
x1 = 0.4263 | – | 25.9 | 22 | – | 15.6 | 13.2 | 11.5 | 9.9 | –
x1 = 0.5018 | 42.1 | 34 | – | 22.8 | 19.4 | 16.5 | – | – | –
x1 = 0.5783 | 52.8 | 42.1 | – | 28.3 | 23.6 | 20 | 17 | 14.5 | –
x1 = 0.6771 | – | – | 44.2 | 36 | 29.8 | 24.8 | 21.1 | 18.1 | –
x1 = 0.7782 | 90.5 | 70.3 | – | 44.9 | 36.5 | 30 | – | 22.2 | 18.7
